One block for each compound: values may come before it.
What was measured:
human 5-HT6 = biological target: T1, human 5-HT6 (Homo sapiens, UniProt P50406); experiment: [3H]-LSD radioligand binding assay, 5-HT6R; settings: HEK293 expressing human 5-HT6R, read-out: 5-HT6 Ki
T1 construct: expressed in transfected cells
Method: Next, the ligands’ affinity for the 5-HT6 receptors was evaluated in the [^3H]-LSD radioligand binding assay. Experiments were performed in a stable HEK293 cell line expressing the human 5-HT6R.
The pellets were stored at −80 °C.

[1] = design: method as in PMID 36183548; settings: MLMs, as previously reported ref 30; cited from earlier work
[2] = biological target: human serum albumin (HSA) (Homo sapiens, UniProt P02768); design: purchased Daicel Chiral Technologies; method as in PMID 28215942; settings: cited from earlier work
HSA and AGP (24:1) = experiment: in vitro; settings: human, plasma

T1 sequence (P50406 whole entry): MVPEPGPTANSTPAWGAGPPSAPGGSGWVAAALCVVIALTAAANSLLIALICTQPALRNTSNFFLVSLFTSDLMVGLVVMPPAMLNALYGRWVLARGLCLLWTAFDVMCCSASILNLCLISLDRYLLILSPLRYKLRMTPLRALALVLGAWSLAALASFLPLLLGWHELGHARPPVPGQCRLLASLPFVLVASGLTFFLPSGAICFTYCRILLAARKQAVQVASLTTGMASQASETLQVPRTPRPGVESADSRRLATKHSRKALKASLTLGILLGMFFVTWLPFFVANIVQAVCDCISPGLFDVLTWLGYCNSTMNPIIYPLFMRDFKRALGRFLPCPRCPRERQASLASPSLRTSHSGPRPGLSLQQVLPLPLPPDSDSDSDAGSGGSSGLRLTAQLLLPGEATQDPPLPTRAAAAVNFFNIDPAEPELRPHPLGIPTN
Sequence of human serum albumin (HSA) (P02768 25-609): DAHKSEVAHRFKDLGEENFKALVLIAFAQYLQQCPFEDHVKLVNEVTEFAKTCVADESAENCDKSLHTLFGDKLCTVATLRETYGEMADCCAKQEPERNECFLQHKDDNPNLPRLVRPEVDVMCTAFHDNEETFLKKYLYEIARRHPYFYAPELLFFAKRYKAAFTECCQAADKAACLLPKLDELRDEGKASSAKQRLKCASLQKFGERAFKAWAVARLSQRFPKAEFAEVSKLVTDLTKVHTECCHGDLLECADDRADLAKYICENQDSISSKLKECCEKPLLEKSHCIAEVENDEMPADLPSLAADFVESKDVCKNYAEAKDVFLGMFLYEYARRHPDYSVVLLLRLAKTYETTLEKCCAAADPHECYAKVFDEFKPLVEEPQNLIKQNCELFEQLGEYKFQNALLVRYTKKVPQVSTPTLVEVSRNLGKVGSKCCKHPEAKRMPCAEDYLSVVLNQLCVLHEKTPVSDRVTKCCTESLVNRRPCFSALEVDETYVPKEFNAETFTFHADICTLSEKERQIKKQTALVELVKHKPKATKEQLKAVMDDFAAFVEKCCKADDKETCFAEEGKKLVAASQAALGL

Ki (human 5-HT6): 651 ± 135 nM
SMILES: O=S(=O)(NC1=NCc2ccccc2N1)c1cccc2ccccc12 [PR 40, N -(3,4-dihydroquinazolin-2-yl)naphthalene-1-sulfonamide]
metabolized [1]: 97%

SMILES: O=c1[nH]c2ccccc2n1C1CCN(CCCC(c2ccc(F)cc2)c2ccc(F)cc2)CC1 [pimozide]
affinity to HSA [2]: 98.6%

fraction unbound at 12 min, 20 µM (HSA and AGP (24:1)): 0.015
SMILES: CC(=O)CC(c1ccccc1)c1c(O)c2ccccc2oc1=O (stereo not shown) [warfarin]

Reference: publication PMC11477289, “Low-Basicity 5-HT6 Receptor Ligands from the Group of Cyclic Arylguanidine Derivatives and Their Antiproliferative Activity Evaluation” (International Journal of Molecular Sciences, 2024)
